pIC50: −log10 of the molar value. Like-named read-outs stand apart in the source and are kept apart here.

Results on 26 compounds are retold here after patent publication US11352350B2, “IRAK degraders and uses thereof” (Kymera Therapeutics, Inc., priority 2018, dated 2022).

One test deals with IRAK4 (Homo sapiens (Human), UniProt Q9NWZ3). In words: IRAK4 MSD degradation in OCI-LY10. It counts as cell-based. The following applies: MSD. The procedure, abridged:
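OCI-LY10 cells treated with 8-point 1:3 dilutions (top 1 to 10 μM final) for 4 to 24 h at 37° C. Lysate IRAK4 measured by MSD sandwich immunoassay (2H9 capture, Y279 detection, SULFO-TAG anti-rabbit). DC50 from three-parameter logistic fit.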

In the next test the test system is OCI-LY10. In words: CTG Cell Viability Assay - OCI-LY10. It counts as cell-based, human. Particulars: OCI-LY10, 4 days, read-out: CTG Cell Viability Assay - OCI-LY10: Average external-IC50. A digest of the protocol: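 OCI-LY10 cells exposed to 9-dose, 1:3 dilutions from 10 μM top (0.2% DMSO) for 4 days at 37° C, 5% CO2. Viability by CellTiter-Glo luminescence; IC50 from three-parameter logistic fit.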

Where [1] appears, read: OCI-LY10, 4 hrs, read-out: IRAK4 MSD degradation in OCI-LY10 at 4 hrs: Average external-Abs DC50.
[2] abbreviates: OCI-LY10, 24 hrs, read-out: IRAK4 MSD degradation in OCI-LY10 at 24 hrs: Average external-Abs DC50.

IRAK4, sequence (Q9NWZ3 whole entry): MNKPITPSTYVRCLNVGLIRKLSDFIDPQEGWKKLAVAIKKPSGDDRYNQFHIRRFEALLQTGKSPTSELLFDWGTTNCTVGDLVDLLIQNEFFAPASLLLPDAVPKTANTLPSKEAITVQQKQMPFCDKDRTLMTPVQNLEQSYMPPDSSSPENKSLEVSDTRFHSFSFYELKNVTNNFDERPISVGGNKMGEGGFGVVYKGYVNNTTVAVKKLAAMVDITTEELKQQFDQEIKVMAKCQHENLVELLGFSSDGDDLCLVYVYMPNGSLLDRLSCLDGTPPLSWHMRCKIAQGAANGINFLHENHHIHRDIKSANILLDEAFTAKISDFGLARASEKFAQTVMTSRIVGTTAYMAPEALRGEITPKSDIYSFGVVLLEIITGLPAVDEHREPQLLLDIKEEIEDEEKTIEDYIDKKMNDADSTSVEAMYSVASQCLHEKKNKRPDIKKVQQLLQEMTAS

As to `CN(CCCOCCCc1cccc2c1n(C)c(=O)n2C1CCC(=O)N(C)C1=O)C[C@H]1CC[C@H](n2cc(NC(=O)c3coc(-c4ccnc(NCC5CC5)c4)n3)c(C(F)F)n2)CC1` (some centres unmarked) [I-246], the DC50 (as a rule, the concentration at which degradation of the target reaches its halfway point) at IRAK4 (setting [1]) lay within 100 to 1000 nM. The pIC50 (commonly −log10 of the IC50, conventionally taken in molar units) in the test on OCI-LY10 (Homo sapiens, OCI-Ly10, 96 h) is below 6.00.
The corresponding values for `CN1C(=O)CCC(n2c(=O)n(C)c3c(CN4CCC(N(C)C[C@H]5CC[C@H](n6cc(NC(=O)c7coc(-c8ccnc(NCC9CC9)c8)n7)c(C(F)F)n6)CC5)CC4)cccc32)C1=O` (some centres unmarked) [I-247] are 100 to 1000 nM and below 6.00.
The corresponding values for `Cn1c(=O)n(C2CCC(=O)NC2=O)c2cccc(CN3CCC(O[C@H]4C[C@H](N(C)C[C@H]5CC[C@H](n6cc(NC(=O)c7coc(-c8ccnc(NCC9CC9)c8)n7)c(C(F)F)n6)CC5)C4)CC3)c21` (some centres unmarked) [I-249] are 10 to 100 nM and above 7.30.
The corresponding values for `Cn1c(=O)n(C2CCC(=O)NC2=O)c2ccc(CN3CCN(CCO[C@H]4C[C@H](N(C)C[C@H]5CC[C@H](n6cc(NC(=O)c7coc(-c8ccnc(NCC9CC9)c8)n7)c(C(F)F)n6)CC5)C4)CC3)cc21` (some centres unmarked) [I-252] are below 10 nM and 6.30 to 7.00.
Turning to `Cn1c(=O)n(C2CCC(=O)NC2=O)c2ccc(CN3CCC(CCCN4CCC(n5cc(NC(=O)c6coc(-c7ccnc(NCC8CC8)c7)n6)c(C(F)F)n5)CC4)CC3)cc21` (centres unmarked) [I-254], on IRAK4 (setting [1]), the DC50 fell in the range of 10 to 100 nM. Further, in the test on OCI-LY10 (Homo sapiens, OCI-Ly10, 96 h), the pIC50 was 6.30 to 7.00.
In the case of `CN(CCCOCCCc1cccc2c1n(C)c(=O)n2C1CCC(=O)NC1=O)C[C@H]1CC[C@H](n2cc(NC(=O)c3cnn4ccc(N5CCOCC5)nc34)c(C(F)F)n2)CC1` (some centres unmarked) [I-259], the DC50 at IRAK4 (setting [1]) and at IRAK4 (setting [2]) was below 10 nM in each case. In addition, in the test on OCI-LY10 (Homo sapiens, OCI-Ly10, 96 h), the pIC50 is below 6.00.
`Cn1c(=O)n(C2CCC(=O)NC2=O)c2cccc(CN3CCC(CCN4CC(n5cc(NC(=O)c6coc(-c7ccnc(NCC8CC8)c7)n6)c(C(F)F)n5)C4)CC3)c21` (centres unmarked) [I-263]: at IRAK4 (setting [1]), the DC50 was in the range of 10 to 100 nM. Moreover, in the test with OCI-LY10 (Homo sapiens, OCI-Ly10, 96 h), the pIC50 is above 7.30.
The corresponding values for `Cn1c(=O)n(C2CCC(=O)NC2=O)c2cccc(CN3CCC(CN4CCC(n5cc(NC(=O)c6coc(-c7ccnc(NCC8CC8)c7)n6)c(C(F)F)n5)CC4)CC3)c21` (centres unmarked) [I-265] are 10 to 100 nM and above 7.30.
For `Cn1c(=O)n(C2CCC(=O)NC2=O)c2cccc(CCCOC3CCN(C[C@H]4CC[C@H](n5cc(NC(=O)c6cnn7ccc(NCC8CC8)nc67)c(C(C)(C)O)n5)CC4)CC3)c21` (some centres unmarked) [I-267], the DC50 on IRAK4 (setting [1]) lay in the range of 100 to 1000 nM. In addition, the pIC50 with OCI-LY10 is below 6.00.
`CN(C[C@H]1CC[C@H](n2cc(NC(=O)c3cnn4ccc(NCC5CC5)nc34)c(C(C)(C)O)n2)CC1)C1CCN(Cc2cccc3c2n(C)c(=O)n3C2CCC(=O)NC2=O)CC1` (some centres unmarked) [I-268]: the 50% degradation concentration (DC50) at IRAK4 (setting [1]) lay in the range of 100 to 1000 nM. For the same compound, the pIC50 in the test on OCI-LY10 (Homo sapiens, OCI-Ly10, 96 h) is below 6.00.
On to `Cn1c(=O)n(C2CCC(=O)NC2=O)c2cccc(CCCOCCCN3CCN([C@H]4CC[C@H](Nc5ncnc6ccc(CC#N)cc56)CC4)CC3)c21` (some centres unmarked) [I-269], for which the DC50 on IRAK4 (setting [1]) and at IRAK4 (setting [2]) was above 1000 nM in each case. The pIC50 in the test on OCI-LY10 (Homo sapiens, OCI-Ly10, 96 h) was below 6.00.
On to `Cn1c(=O)n(C2CCC(=O)NC2=O)c2cccc(CN3CCC(N(C)[C@H]4CC[C@H](Oc5ncnc6ccc(C#N)cc56)CC4)CC3)c21` (some centres unmarked) [I-270], for which the DC50 at IRAK4 (setting [1]) and at IRAK4 (setting [2]) was above 1000 nM each time. In the test on OCI-LY10 (Homo sapiens, OCI-Ly10, 96 h), the negative-log IC50 (pIC50) was below 6.00.
In the case of `Cn1c(=O)n(C2CCC(=O)NC2=O)c2cccc(CCCOCCCOC3CCN(C4CCC(Nc5ncnc6ccc(C#N)cc56)CC4)CC3)c21` (centres unmarked) [I-271], the DC50 at IRAK4 (setting [1]) and on IRAK4 (setting [2]) was above 1000 nM throughout. For the same compound, in the test on OCI-LY10 (Homo sapiens, OCI-Ly10, 96 h), the pIC50 is below 6.00.
As to `Cc1ccc(-n2nc(C3CCN(CCCCCOCCCc4cccc5c4n(C)c(=O)n5C4CCC(=O)NC4=O)CC3)cc2NC(=O)c2cnn3cccnc23)nc1` (centres unmarked) [I-272], the DC50 on IRAK4 (setting [1]) and on IRAK4 (setting [2]) was above 1000 nM each time. In addition, the pIC50 in the test with OCI-LY10 (Homo sapiens, OCI-Ly10, 96 h) is below 6.00.
For `Cc1ccc(-n2nc(C3CCN(CCCCCOCCCc4ccc5c(c4)n(C)c(=O)n5C4CCC(=O)NC4=O)CC3)cc2NC(=O)c2cnn3cccnc23)nc1` (centres unmarked) [I-273], the DC50 at IRAK4 (setting [1]) and on IRAK4 (setting [2]) was above 1000 nM in each case. For the same compound, in the test with OCI-LY10 (Homo sapiens, OCI-Ly10, 96 h), the pIC50 is below 6.00.
On to `CN[C@@H](C)C(=O)N[C@H](C(=O)N1CCC[C@H]1c1nc(C(=O)c2cccc(OCCOCCOCCOCCOCCNC[C@H]3CC[C@H](n4cc(NC(=O)c5coc(-c6ccnc(NCC7CC7)c6)n5)c(C(F)F)n4)CC3)c2)cs1)C1CCCCC1` [I-274], for which the DC50 on IRAK4 (setting [1]) and at IRAK4 (setting [2]) was 100 to 1000 nM in each case. Moreover, in the test on OCI-LY10 (Homo sapiens, OCI-Ly10, 96 h), the pIC50 is 6.00 to 6.30.
For `C[C@@H]1CN(c2ccn3ncc(C(=O)Nc4cn([C@H]5CC[C@H](CN6CCC(OCCCc7cccc8c7n(C)c(=O)n8C7CCC(=O)NC7=O)CC6)CC5)nc4C(F)F)c3n2)C[C@H](C)O1` (stereo partly drawn) [I-275, N-[3-(difluoromethyl)-1-[4-[[4-[3-[1-(2,6-dioxo-3-piperidyl)-3-methyl-2-oxo-benzimidazol-4-yl]propoxy]-1-piperidyl]methyl]cyclohexyl]pyrazol-4-yl]-5-[(2R,6S)-2,6-dimethylmorpholin-4-yl] pyrazolo[1,5-a] pyrimidine-3-carboxamide], on IRAK4 (setting [1]), the DC50 was in the range of 10 to 100 nM. In the test with OCI-LY10 (Homo sapiens, OCI-Ly10, 96 h), the pIC50 is below 6.00.
On the same counts, the results for `C[C@@H]1CN(c2ccn3ncc(C(=O)Nc4cn([C@H]5CC[C@H](CN6CCC(OCCCc7cccc8c7n(C)c(=O)n8C7CCC(=O)NC7=O)CC6)CC5)nc4C(F)F)c3n2)C[C@@H](C)O1` (some centres unmarked) [I-276] are below 10 nM and below 6.00.
The corresponding values for `CN(C[C@H]1CC[C@H](n2cc(NC(=O)c3cnn4ccc(N[C@@H]5CCCC[C@@H]5O)nc34)c(C(F)F)n2)CC1)C1CCN(Cc2cccc3c2n(C)c(=O)n3C2CCC(=O)NC2=O)CC1` (some centres unmarked) [I-279] are below 10 nM and below 6.00.
On to `Cn1c(=O)n(C2CCC(=O)NC2=O)c2ccc(CCCOC3CCN(C[C@H]4CC[C@H](n5cc(NC(=O)c6cnn7ccc(N[C@@H]8CCCC[C@@H]8O)nc67)c(C(F)F)n5)CC4)CC3)cc21` (some centres unmarked) [I-280], for which the DC50 at IRAK4 (setting [1]) is 10 to 100 nM. In addition, in the test on OCI-LY10 (Homo sapiens, OCI-Ly10, 96 h), the pIC50 is below 6.00.
On the same counts, the results for `CN1C(=O)C(C2CCC(=O)NC2=O)c2cccc(CCCOC3CCN(C[C@H]4CC[C@H](n5cc(NC(=O)c6cnn7ccc(N8CC[C@H](O)C8)nc67)c(C(F)F)n5)CC4)CC3)c21` (some centres unmarked) [I-282] are below 10 nM and below 6.00.
On the same counts, the results for `CN1C(=O)C(C2CCC(=O)NC2=O)c2cccc(CCCOC3CCN(C[C@H]4CC[C@H](n5cc(NC(=O)c6cnn7ccc(N8CC(O)C8)nc67)c(C(F)F)n5)CC4)CC3)c21` (some centres unmarked) [I-284] are below 10 nM and below 6.00.
As to `C[C@H]1CN(c2ccn3ncc(C(=O)Nc4cn([C@H]5CC[C@H](CN6CCC(OCCCc7cccc8c7n(C)c(=O)n8C7CCC(=O)NC7=O)CC6)CC5)nc4C(F)F)c3n2)C[C@H](C)O1` (some centres unmarked) [I-285], the DC50 on IRAK4 (setting [1]) lay within 10 to 100 nM. For the same compound, the negative logarithm of the IC50 (pIC50) in the test on OCI-LY10 (Homo sapiens, OCI-Ly10, 96 h) is below 6.00.
Turning to `CN1C(=O)C(C2CCC(=O)NC2=O)c2cccc(CCCOC3CCN(C[C@H]4CC[C@H](n5cc(NC(=O)c6cnn7ccc(N8CCC(C)(O)CC8)nc67)c(C(F)F)n5)CC4)CC3)c21` (some centres unmarked) [I-286], at IRAK4 (setting [1]), the DC50 was 10 to 100 nM. Besides, in the test with OCI-LY10 (Homo sapiens, OCI-Ly10, 96 h), the pIC50 was below 6.00.
On the same counts, the results for `CN1C(=O)C(C2CCC(=O)NC2=O)c2cccc(CCCOC3CCN(C[C@H]4CC[C@H](n5cc(NC(=O)c6cnn7ccc(N8CC9(COC9)C8)nc67)c(C(F)F)n5)CC4)CC3)c21` (some centres unmarked) [I-287] are below 10 nM and below 6.00.
On the same counts, the results for `CN1C(=O)C(C2CCC(=O)NC2=O)c2cccc(CCCOC3CCN(C[C@H]4CC[C@H](n5cc(NC(=O)c6cnn7ccc(NCCC(C)(C)O)nc67)c(C(F)F)n5)CC4)CC3)c21` (some centres unmarked) [I-288] are below 10 nM and below 6.00.
